In PMC11695783 (Frontiers in Pharmacology, 2024):
Several values for one entry are separate records, joined by “and”; a condition that tells them apart may be missing. Identical values can stand only once.

What was measured:
[1] = system: IFN-γ; assay: IFN-γ in BALF of M. pneumoniae-infected mice (ELISA); assay type: in vivo, BALB/c mice; conditions: tiamulin 40 mg/kg IM; for IFN-γ in BALF (AV): group AV; for IFN-γ in BALF: individual mice, listed as Tiamulin-IM
Experimental: (§1) Adult BALB/c mice (20–22 g) were divided into a control group, a positive group, and compound 16C groups at low (20 mg/kg), medium (40 mg/kg), and high-dose (80 mg/kg) levels and oral and intramuscular tiamulin treatment groups (40 mg/kg). We formulated the above dose range based on the dose at which tiamulin was approved for injection (10–20 mg/kg) and the dose previously reported (45 mg/kg) ([EMA, 1999]; [Xiao et al., 2016]). In summary, we selected similar doses for compound 16C in vivo study. 40 mg/kg was used as an intermediate value, one-half of it as a low dose, and two times of it as a high dose. To prepare the challenge solution, logarithmic phase culture suspensions were centrifuged at 1700 g for 10 min, and the pellets were suspended in sterile PBS to obtain 1 × 10^9 CFU/mL. Before the challenge, mice were anesthetized with tribromoethanol (250 mg/kg, IP). Mice in the control groups were intratracheally inoculated with sterile PBS, whereas mice in the other groups were intratracheally challenged with 50 μL (1 × 10^9 CFU/mL) M. pneumoniae suspension once a day for 3 days. Compound 16C and tiamulin (tiamulin-IM group) dissolved using the method mentioned in pharmacokinetic studies, and the tiamulin fumarate soluble powder was dissolved in ddH2O for oral administration. After the final challenge, antibiotics were administered at low, medium, and high-dose levels (see above) at 10 a.m. and 10 p.m. daily for 4 consecutive days. Normal saline containing 5% DMSO and 5% Tween-80 was administered as control and positive groups by thigh intramuscular injection. To compare the efficacy of compound 16C and tiamulin under the same route of administration, we used the original tiamulin for intramuscular administration in the same formulation. On the other hand, tiamulin fumarate soluble powder, approved for oral administration to treat animal mycoplasma diseases in China, was administered to mice by gavage. Based on a clinical study of lefamulin in community-acquired bacterial pneumonia (CABP), subjects were administered twice a day and the 96 ± 24 h of starting treatment was an essential point for early clinical response (ECR) ([Paukner et al., 2022]). We therefore stopped treatment at 96 h and sampled at 192 h to explore whether the disease worsened after cessation of treatment. Bronchoalveolar lavage fluid (BALF) and lungs were collected at 0, 96, 192 h (Samples of 0 h were collected before starting treatment, and mice were fed ad libitum without drug treatment during 96–192 h) after the first dose, BALF for cytokine and cytological analysis and lung for histopathological evaluation.
(§2) Bronchoalveolar lavage was performed according to a standardized method ([Van Hoecke et al., 2017]). BALF was obtained following infusion of 0.5 mL PBS via tracheal cannulation into the lung twice (total 1 mL), and 200 µL was used for mycoplasma counts. The remaining BALF was centrifuged at 300 g for 10 min to separate the debris. The supernatants were stored at −80°C, and the debris was resuspended in the same volume of PBS containing red blood cell lysis buffer. A hemocytometer was used to count total cell numbers in BALF, and cell smears (Diff-Quik staining) were prepared to calculate the percentages of neutrophils, macrophages, and lymphocytes. IFN-γ, TNF-α, and CXCL1 levels in BALF samples were assessed using commercial ELISA kits using guidelines recommended by the manufacturer (Elabscience, Wuhan, China). Parallel data for each experimental group at each time point were obtained from six different mice.

[2] = system: Mycoplasma pneumoniae; assay: In vivo pharmacodynamic study: Mycoplasma pneumoniae loads in BALF of infected mice; design: species or system BALB/c mice; conditions: for microbial reduction in BALF: 96 h; for MPcounts in BALF (AV) / MPcounts in BALF: tiamulin 40 mg/kg IM; for MPcounts in BALF (AV): group AV; for MPcounts in BALF: individual mice, listed as TiamulinIM
Experimental: as §1, §2

[3] = system: CXCL1; assay: CXCL1 in BALF of M. pneumoniae-infected mice (ELISA); assay type: in vivo, BALB/c mice; conditions: for CXCL1 in BALF (AV): group AV; for CXCL1 in BALF: individual mice
Experimental: as §1, §2

[4] = system: inflammatory cells in BALF (neutrophils, macrophages, lymphocytes); assay: Inflammatory cell analysis in BALF of M. pneumoniae-infected mice; assay type: in vivo, BALB/c mice; conditions: for cell counts, total (AV) / cell counts, 中 (neutrophils) (AV) / cell counts, 巨 (macrophages) (AV) / cell counts, 淋 (lymphocytes) (AV): Tiamulin(40mg/kg) group; for total number of inflammatory cells in BALF compared with the positive controls: 96 h
Experimental: as §1, §2

[5] = tiamulin 40 mg/kg IM, 96 h, listed as Tiamulin-IM

## C=C[C@]1(C)C[C@@H](OC(=O)CSCCN(CC)CC)[C@]2(C)[C@H](C)CC[C@]3(CCC(=O)[C@H]32)[C@@H](C)[C@@H]1O [tiamulin, Tiamulin, reference compound]
[1]; 96h
  IFN-γ in BALF (AV): 32.2202 pg/mL
[1]; 96 h
  IFN-γ in BALF: 44.0596 pg/mL and 23.033 pg/mL and 20.7601 pg/mL and 28.3723 pg/mL and 44.8757 pg/mL
[1]; 192 h
  IFN-γ in BALF (AV): 31.227 pg/mL
  IFN-γ in BALF: 40.7875 pg/mL and 41.6067 pg/mL and 42.4252 pg/mL and 23.316 pg/mL and 21.0452 pg/mL and 18.1814 pg/mL
[2]; tiamulin 40 mg/kg IM twice daily 4 d
  microbial reduction in BALF: 2.26 log10 CFU/mL
[2]; 96h
  MPcounts in BALF (AV): 3.805 Log10CFU/mL
  MPcounts in BALF: 3.506 Log10CFU/mL and 3.899 Log10CFU/mL and 3.382 Log10CFU/mL and 5.052 Log10CFU/mL and 3.608 Log10CFU/mL and 3.384 Log10CFU/mL
[2]; 192 h
  MPcounts in BALF (AV): 3.657 Log10CFU/mL
[2]; 192h
  MPcounts in BALF: 3.57 Log10CFU/mL (2×) and 3.868 Log10CFU/mL and 3.692 Log10CFU/mL and 3.619 Log10CFU/mL and 3.625 Log10CFU/mL
[2]; tiamulin 40 mg/kg PO (tiamulin fumarate soluble powder) twice daily 4 d
  microbial reduction in BALF: 1.17 log10 CFU/mL
[3]; [5]
  CXCL1 in BALF (AV): 35.2692 pg/mL
  CXCL1 in BALF: 32.338 pg/mL and 47.9047 pg/mL and 25.7589 pg/mL and 33.1238 pg/mL and 37.221 pg/mL
[3]; tiamulin 40 mg/kg IM, 192 h
  CXCL1 in BALF (AV): 47.4109 pg/mL
[3]; tiamulin 40 mg/kg IM, 192 h, listed as Tiamulin-IM
  CXCL1 in BALF: 47.2576 pg/mL and 36.3942 pg/mL and 46.6093 pg/mL and 59.3827 pg/mL
[3]; tiamulin 40 mg/kg PO (fumarate soluble powder), 96 h
  CXCL1 in BALF (AV): 40.932 pg/mL
[3]; tiamulin 40 mg/kg PO (fumarate soluble powder), 192 h
  CXCL1 in BALF (AV): 46.955 pg/mL
[4]; time 0
  cell counts, total (AV): 30.4125 n*10^5
  cell counts, 中 (neutrophils) (AV): 26.5281 n*10^5
  cell counts, 巨 (macrophages) (AV): 3.545 n*10^5
  cell counts, 淋 (lymphocytes) (AV): 0.3394 n*10^5
[4]; time 96
  cell counts, total (AV): 9.854 n*10^5
  cell counts, 中 (neutrophils) (AV): 1.672 n*10^5
  cell counts, 巨 (macrophages) (AV): 3.529 n*10^5
  cell counts, 淋 (lymphocytes) (AV): 4.653 n*10^5
[4]; time 192
  cell counts, total (AV): 10.35 n*10^5
  cell counts, 中 (neutrophils) (AV): 0.1129 n*10^5
  cell counts, 巨 (macrophages) (AV): 3.034 n*10^5
  cell counts, 淋 (lymphocytes) (AV): 7.204 n*10^5
[4]; tiamulin intramuscular 40 mg/kg
  total number of inflammatory cells in BALF compared with the positive controls: significantly lower
[4]; tiamulin intramuscular 40 mg/kg, 192 h, similar to control group (P> 0.05)
  number of cells in BALF four days following treatment cessation: lower than that of the positive control
[4]; tiamulin orally administered 40 mg/kg
  total number of inflammatory cells in BALF compared with the positive controls: not statistically significant
